Assay results published in US12338203B2 (TAISHO PHARMACEUTICAL CO., LTD., priority 2019, dated 2025).

Each molecule was assayed against T1, human LPAR1 (Homo sapiens, UniProt Q92633) (assay: Test Example 1: antagonism against response of LPA-induced increase in intracellular Ca2+ concentration in RH7777 cells stably expressing human LPAR1). Conditions: RH7777 cells stably expressing human LPAR1; Fluo-4 fluorescence, FDSS6000; read-out: IC50 value (concentration producing 50% antagonism against response of LPA-induced increase in intracellular Ca2+ concentration) (converted).
T1 construct: expressed in transfected cells
Format: cell-based
In short: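 RH7777 cells stably transfected with human LPAR1 were preincubated with test compound 30 min at 37 °C in HBSS/20 mM HEPES/probenecid/0.05% BSA buffer, pH 7.4, then LPA-stimulated.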

T1 sequence (Q92633 whole entry): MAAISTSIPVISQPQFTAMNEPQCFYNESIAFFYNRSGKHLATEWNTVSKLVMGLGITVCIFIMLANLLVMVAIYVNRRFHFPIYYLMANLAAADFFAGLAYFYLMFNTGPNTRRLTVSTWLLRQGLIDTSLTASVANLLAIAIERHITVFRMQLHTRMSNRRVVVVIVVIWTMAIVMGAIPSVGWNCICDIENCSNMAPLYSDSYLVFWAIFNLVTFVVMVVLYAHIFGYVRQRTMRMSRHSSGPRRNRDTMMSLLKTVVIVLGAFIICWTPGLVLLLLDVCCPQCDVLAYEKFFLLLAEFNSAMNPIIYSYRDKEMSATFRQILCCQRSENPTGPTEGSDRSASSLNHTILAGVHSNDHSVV

Row | SMILES | IC50
1 | CCOc1cc([C@@H](C)N(CCCCc2ccccc2)C(=O)NC2(C(=O)O)CCOCC2)cc(OCC)c1C(C)=O [Example 1-151] | 3.57 nM
2 | CCOc1cc([C@@H](C)N(CCCCc2ccccc2)C(=O)NC2(C(=O)O)CCOCC2)cc(OCC)c1C(C)O (stereo partly drawn) [Example 1-152, 4-{[{(1R)-1-[3,5-Diethoxy-4-(1-Hydroxyethyl)Phenyl]Ethyl}(4-Phenylbutyl) Carbamoyl]Amino}Oxane-4-Carboxylic Acid] | 5.17 nM
3 | CCOc1cc([C@@H](C)N(CCCCc2ccccc2)C(=O)NC2(C(=O)O)CCOCC2)cc(OCC)c1C1(O)CC1 [Example 1-153] | 173 nM
4 | CCOc1cc([C@@H](C)N(CCCCc2ccccc2)C(=O)NC2(C(=O)O)CCOCC2)cc(OCC)c1C [Example 1-154] | 11.3 nM
5 | CCOc1cc([C@@H](C)N(CCCCc2ccccc2)C(=O)NC2(C(=O)O)CCOCC2)cc(OCC)c1C1CC1 [Example 1-155] | 0.997 nM
6 | CCOc1c(C(C)=O)ccc([C@@H](C)N(CCCCc2ccccc2)C(=O)NC2(C(=O)O)CCOCC2)c1C [Example 1-156] | 3.68 nM
7 | CCOc1cc([C@@H](C)N(CCCCc2ccccc2)C(=O)NC2(C(=O)O)CCS(=O)(=O)CC2)cc(OCC)c1C [Example 1-157] | 3.24 nM
8 | CCOc1cc([C@@H](C)N(CCCCc2ccccc2)C(=O)NC2(C(=O)O)CNC2)cc(OCC)c1C [Example 1-158, 3-({[(1R)-1-(3,5-Diethoxy-4-Methylphenyl)Ethyl](4-Phenylbutyl) Carbamoyl}Amino) Azetidine-3-Carboxylic Acid] | 294 nM
9 | CCOc1cc([C@@H](C)N(CCCCc2ccccc2)C(=O)NC2(C(=O)O)CN(C(C)=O)C2)cc(OCC)c1C [Example 1-159, 1-Acetyl-3-({[(1R)-1-(3,5-Diethoxy-4-Methylphenyl)Ethyl](4-Phenylbutyl) Carbamoyl}Amino) Azetidine-3-Carboxylic Acid] | 2.56 nM
10 | CCOc1cc([C@@H](C)N(CCCCc2ccccc2)C(=O)NC2(C(=O)O)CCN(C(C)=O)CC2)cc(OCC)c1C [Example 1-160] | 11.9 nM
11 | CCOc1cc([C@@H](C)N(CCCCc2ccccc2)C(=O)N[C@H]2COC[C@H]2C(=O)O)cc(OCC)c1C(C)=O [Example 1-161] | 9.64 nM
12 | CCOc1cc([C@@H](C)N(CCCCc2ccccc2)C(=O)N[C@H]2COC[C@H]2C(=O)O)cc(OCC)c1C(C)=O [Example 1-162] | 3.92 nM
13 | CCOc1cc([C@@H](C)N(CCCCc2ccccc2)C(=O)NC2CC(C(=O)O)N(C(C)=O)C2)cc(OCC)c1C(C)=O (stereo partly drawn) [Example 1-163] | 20.5 nM
14 | CCOc1cc([C@@H](C)N(CCCCc2ccccc2)C(=O)NC2CC(C(=O)O)N(C(C)=O)C2)cc(OCC)c1C(C)=O (stereo partly drawn) [Example 1-164] | 38.4 nM
15 | CCOc1cc([C@@H](C)N(CCCCc2ccccc2)C(=O)NCC2(C(=O)O)CCOCC2)cc(OCC)c1C(C)=O [Example 1-165] | 64.8 nM
16 | CCOc1cc([C@@H](C)N(CCCCc2ccccc2)C(=O)NC2(CC(=O)O)CCOCC2)cc(OCC)c1C(C)=O [Example 1-166] | 11 nM
17 | CCOc1cc([C@@H](C)N(CCCCc2ccccc2)C(=O)N(C)C2(C(=O)O)CC(F)(F)C2)cc(OCC)c1C [Example 2-1, 1-[{[(1R)-1-(3,5-Diethoxy-4-Methylphenyl)Ethyl](4-Phenylbutyl) Carbamoyl}(Methyl)Amino]-3,3-Difluorocyclobutane-1-Carboxylic Acid] | 608 nM
18 | CCOc1cc(CN(CCCCc2ccccc2)C(=O)NC2(C(=O)O)CCCC2)cc(OCC)c1C [Example 3-2] | 85.8 nM
19 | CCC(c1cc(OC)c(C)c(OC)c1)N(CCCCc1ccccc1)C(=O)NC1(C(=O)O)CC(F)(F)C1 (stereo not drawn) [Example 3-3] | 30.1 nM
20 | CCOc1cc(C(CO)N(CCCCc2ccccc2)C(=O)NC2(C(=O)O)CC(F)(F)C2)cc(OCC)c1C(C)=O (stereo not drawn) [Example 3-4, 1-({[1-(4-Acetyl-3,5-Diethoxyphenyl)-2-Hydroxyethyl](4-Phenylbutyl) Carbamoyl}Amino)-3,3-Difluorocyclobutane-1-Carboxylic Acid] | 4.03 nM

Row | SMILES | IC50
21 | CCOc1cc(C(CO)N(CCCCc2ccccc2)C(=O)NC2(C(=O)O)CC(F)(F)C2)cc(OCC)c1C (stereo not drawn) [Example 3-5] | 4.88 nM
22 | COc1cc(C(CO)N(CCCCc2ccccc2)C(=O)NC2(C(=O)O)CC(F)(F)C2)cc(OC)c1C (stereo not drawn) [Example 3-6] | 7.07 nM
23 | COc1cc(C(CO)N(CCCCc2ccccc2)C(=O)NC2(C(=O)O)CCCC2)cc(OC)c1C (stereo not drawn) [Example 3-7] | 74.5 nM
24 | CCOc1cc(C(CO)N(CCCCc2ccccc2)C(=O)NC2(C(=O)O)Cc3ccccc3C2)cc(OCC)c1C (stereo not drawn) [Example 3-8] | 33.5 nM
25 | COc1cc(C(CO)N(CCCCc2ccccc2)C(=O)NC2(C(=O)O)Cc3ccccc3C2)cc(OC)c1C (stereo not drawn) [Example 3-9] | 62.7 nM
26 | CCOc1cc(C(COC)N(CCCCc2ccccc2)C(=O)NC2(C(=O)O)CC(F)(F)C2)cc(OCC)c1C (stereo not drawn) [Example 3-10] | 114 nM
27 | CCCCN(C(=O)NC1(C(=O)O)CC(F)(F)C1)[C@H](C)c1cc(OCC)c(C)c(OCC)c1 [Example 4-1, 1-({Butyl[(1R)-1-(3,5-Diethoxy-4-Methylphenyl)Ethyl]Carbamoyl}Amino)-3,3-Difluorocyclobutane-1-Carboxylic Acid] | 2500 nM
28 | CCOc1cc([C@@H](C)N(CCCCC(C)C)C(=O)NC2(C(=O)O)CC(F)(F)C2)cc(OCC)c1C [Example 4-2] | 8.34 nM
29 | CCOc1cc([C@@H](C)N(CCCc2ccccc2F)C(=O)NC2(C(=O)O)CC(F)(F)C2)cc(OCC)c1C [Example 4-4, 1-({[(1R)-1-(3,5-Diethoxy-4-Methylphenyl)Ethyl][3-(2-Fluorophenyl) Propyl]Carbamoyl}Amino)-3,3-Difluorocyclobutane-1-Carboxylic Acid] | 9.64 nM
30 | CCOc1cc([C@@H](C)N(CCCc2ccc(F)cc2)C(=O)NC2(C(=O)O)CC(F)(F)C2)cc(OCC)c1C [Example 4-5] | 6.91 nM
31 | CCOc1cc(C(C)N(CCCc2cccc(F)c2)C(=O)NC2(C(=O)O)CC(F)(F)C2)cc(OCC)c1C (stereo not drawn) [Example 4-7] | 25.2 nM
32 | CCOc1cc(C(C)N(CCCCc2ccccc2F)C(=O)NC2(C(=O)O)CC(F)(F)C2)cc(OCC)c1C (stereo not drawn) [Example 4-8] | 8.87 nM
33 | CCOc1cc(C(C)N(CCCCc2ccc(F)cc2)C(=O)NC2(C(=O)O)CC(F)(F)C2)cc(OCC)c1C (stereo not drawn) [Example 4-9] | 11.6 nM
34 | CCOc1cc(C(C)N(CCCCc2cc(F)cc(F)c2)C(=O)NC2(C(=O)O)CC(F)(F)C2)cc(OCC)c1C (stereo not drawn) [Example 4-10] | 26.4 nM
35 | CCOc1cc([C@@H](C)N(CCc2ccc(Cl)cc2)C(=O)NC2(C(=O)O)CC(F)(F)C2)cc(OCC)c1C [Example 4-11] | 126 nM
36 | CCOc1cc(C(C)N(CCCc2cccc(C)c2)C(=O)NC2(C(=O)O)CC(F)(F)C2)cc(OCC)c1C (stereo not drawn) [Example 4-13] | 59.8 nM
37 | CCOc1cc([C@@H](C)N(CCCCc2ccccc2C)C(=O)NC2(C(=O)O)CC(F)(F)C2)cc(OCC)c1C [Example 4-15] | 32.7 nM
38 | CCOc1cc([C@@H](C)N(CCCCc2cccc(C)c2)C(=O)NC2(C(=O)O)CC(F)(F)C2)cc(OCC)c1C [Example 4-16] | 4.05 nM
39 | CCOc1cc([C@@H](C)N(CCCCc2ccc(C)cc2)C(=O)NC2(C(=O)O)CC(F)(F)C2)cc(OCC)c1C [Example 4-17] | 9.68 nM
